Results reported in patent publication US20240374552A1, “Compositions and Methods for Preventing or Reducing the Risk of Metabolic Syndrome” (priority 2021, published 2024).

System: High-Fat Diet (HFD) induced obesity model
Test: Effectiveness on metabolic syndrome risk factors, high-fat diet-induced obesity model
Details: for Body mass index / Cholesterol (%) / Fat free mass / Fat mass / Food consumption (%) / Glucose (%) / Triglycerides (%) / Weight loss (%): reduction, negative = increase
[1] = ED4: HFD, 0.001 mg/Kg daily 2 weeks
[2] = ED5: Normal diet, 0.001 mg/Kg daily 2 weeks
[3] = ED6: HFD, 0.0175 mg/Kg daily 2 weeks
[4] = ED7: Normal diet, 0.0175 mg/Kg daily 2 weeks
[5] = ED8: HFD, 0.175 mg/Kg daily 2 weeks
[6] = ED9: Normal diet, 0.175 mg/Kg daily 2 weeks
[7] = ED10: HFD, 0.18 mg/Kg daily 2 weeks
[8] = ED11: Normal diet, 0.18 mg/Kg daily 2 weeks
[9] = ED12: HFD, 0.1999 mg/Kg daily 2 weeks
[10] = ED13: Normal diet, 0.1999 mg/Kg daily 2 weeks
[11] = EH4: HFD, 0.20 mg/Kg daily 2 weeks, purity min 95%
[12] = EH5: Normal diet, 0.20 mg/Kg daily 2 weeks, purity min 95%
[13] = EH6: HFD, 0.76 mg/Kg daily 2 weeks, purity min 95%
[14] = EH7: Normal diet, 0.76 mg/Kg daily 2 weeks, purity min 95%
[15] = EH8: HFD, 1.75 mg/Kg daily 2 weeks, purity min 95%
[16] = EH9: Normal diet, 1.75 mg/Kg daily 2 weeks, purity min 95%
[17] = EH10: HFD, 5.50 mg/Kg daily 2 weeks, purity min 95%
[18] = EH11: Normal diet, 5.50 mg/Kg daily 2 weeks, purity min 95%
[19] = EH12: HFD, 25.00 mg/Kg daily 2 weeks, purity min 95%
[20] = EH13: Normal diet, 25.00 mg/Kg daily 2 weeks, purity min 95%
[21] = EH14: HFD, 55.50 mg/Kg daily 2 weeks, purity min 95%
[22] = EH15: Normal diet, 55.50 mg/Kg daily 2 weeks, purity min 95%
[23] = doses 0.001 mg/Kg to about 0.1999 mg/Kg
[24] = doses 0.20 mg/Kg to about 1.75 mg/Kg

From the text: Animal studies in high-fat diet-induced obesity model in a total 75 male C57BL/6/CIEABR mice 6 to 7 weeks of age.
The test system is based on the High-Fat Diet (HFD) induced obesity model.
During the quarantine period (10 days), all animals were given rodent food “PicoLab Mouse Diet 5058” food, later, they were given high fat food “Tso's High Fat Diet With Butter Fat” or “PicoLab Mouse Diet 5058” food, according to the assignment of the type of diet and treatment that each animal should consume (See table 3 and table 4).
At the end of the induction period, the administration of the different treatments began. The test product, vehicle, and controls were administered daily for two weeks. Administration was orally using curved stainless steel gastric tubes (18 G×1.5) previously sanitized; administration was performed at 11:00±1 h.
For each treatment, different parameters were quantified to determine their decrease regarding the treatment applied to each group: weight loss (%), feed consumption (%), fat free mass (g), fat mass (g), body mass index, glucose (%), cholesterol (%) and triglycerides (%).

Structure (SMILES): CC(C)(C)c1cc(C=C(C#N)C#N)cc(C(C)(C)C)c1O [tyrphostin AG17, Tyrphostin AG17]
- Body mass index [1]: 1.04
- Cholesterol (%) [1]: −0.03%
- Fat free mass [1]: -2.69 g
- Fat mass [1]: -0.54 g
- Food consumption (%) [1]: −4.21%
- Glucose (%) [1]: 0.75%
- Triglycerides (%) [1]: 4.35%
- Weight loss (%) [1]: 3.17%
- Body mass index [2]: 1.69
- Cholesterol (%) [2]: 0.10%
- Fat free mass [2]: -4.02 g
- Fat mass [2]: 1.28 g
- Food consumption (%) [2]: 1.05%
- Glucose (%) [2]: 1.33%
- Triglycerides (%) [2]: 7.83%
- Weight loss (%) [2]: 4.01%
- Body mass index [3]: 2.03
- Cholesterol (%) [3]: 0.04%
- Fat free mass [3]: 1.22 g
- Fat mass [3]: -0.31 g
- Food consumption (%) [3]: 13.04%
- Glucose (%) [3]: 0.92%
- Triglycerides (%) [3]: 17.39%
- Weight loss (%) [3]: 6.19%
- Body mass index [4]: 2.73
- Cholesterol (%) [4]: 0.44%
- Fat free mass [4]: 3.21 g
- Fat mass [4]: 2.59 g
- Food consumption (%) [4]: 17.39%
- Glucose (%) [4]: 1.24%
- Triglycerides (%) [4]: 20.00%
- Weight loss (%) [4]: 8.40%
- Body mass index [5]: 4.41
- Cholesterol (%) [5]: 0.65%
- Fat free mass [5]: 2.34 g
- Fat mass [5]: 1.28 g
- Food consumption (%) [5]: 25.00%
- Glucose (%) [5]: 1.36%
- Triglycerides (%) [5]: 24.35%
- Weight loss (%) [5]: 17.16%
- Body mass index [6]: 4.30
- Cholesterol (%) [6]: 1.30%
- Fat free mass [6]: 3.98 g
- Fat mass [6]: 3.56 g
- Food consumption (%) [6]: 20.83%
- Glucose (%) [6]: 1.93%
- Triglycerides (%) [6]: 25.22%
- Weight loss (%) [6]: 22.13%
- Body mass index [7]: 3.30
- Cholesterol (%) [7]: 1.10%
- Fat free mass [7]: 3.32 g
- Fat mass [7]: -0.10 g
- Food consumption (%) [7]: 21.74%
- Glucose (%) [7]: 1.49%
- Triglycerides (%) [7]: 32.17%
- Weight loss (%) [7]: 16.56%
- Body mass index [8]: 4.22
- Cholesterol (%) [8]: 1.27%
- Fat free mass [8]: 5.11 g
- Fat mass [8]: 4.92 g
- Food consumption (%) [8]: 22.92%
- Glucose (%) [8]: 2.31%
- Triglycerides (%) [8]: 29.57%
- Weight loss (%) [8]: 20.88%
- Body mass index [9]: 3.35
- Cholesterol (%) [9]: 0.94%
- Fat free mass [9]: 3.41 g
- Fat mass [9]: 0.36 g
- Food consumption (%) [9]: 22.27%
- Glucose (%) [9]: 1.40%
- Triglycerides (%) [9]: 30.54%
- Weight loss (%) [9]: 16.24%
- Body mass index [10]: 3.91
- Cholesterol (%) [10]: 2.44%
- Fat free mass [10]: 5.39 g
- Fat mass [10]: 6.02 g
- Food consumption (%) [10]: 23.11%
- Glucose (%) [10]: 2.11%
- Triglycerides (%) [10]: 30.43%
- Weight loss (%) [10]: 18.21%
- Body mass index [11]: 3.34
- Cholesterol (%) [11]: 1.13%
- Fat free mass [11]: 3.44 g
- Fat mass [11]: 0.39 g
- Food consumption (%) [11]: 18.18%
- Glucose (%) [11]: 1.43%
- Triglycerides (%) [11]: 31.02%
- Weight loss (%) [11]: 20.88%
- Body mass index [12]: 4.05
- Cholesterol (%) [12]: 2.48%
- Fat free mass [12]: 4.92 g
- Fat mass [12]: 5.99 g
- Food consumption (%) [12]: 22.07%
- Glucose (%) [12]: 2.15%
- Triglycerides (%) [12]: 30.75%
- Weight loss (%) [12]: 20.97%
- Body mass index [13]: 2.23
- Cholesterol (%) [13]: 1.49%
- Fat free mass [13]: 2.39 g
- Fat mass [13]: 1.21 g
- Food consumption (%) [13]: 23.81%
- Glucose (%) [13]: 2.05%
- Triglycerides (%) [13]: 33.12%
- Weight loss (%) [13]: 14.92%
- Body mass index [14]: 3.43
- Cholesterol (%) [14]: 3.38%
- Fat free mass [14]: 3.94 g
- Fat mass [14]: 7.52 g
- Food consumption (%) [14]: 30.10%
- Glucose (%) [14]: 2.04%
- Triglycerides (%) [14]: 31.74%
- Weight loss (%) [14]: 17.21%
- Body mass index [15]: 2.50
- Cholesterol (%) [15]: 2.02%
- Fat free mass [15]: -0.12 g
- Fat mass [15]: 1.05 g
- Food consumption (%) [15]: 33.11%
- Glucose (%) [15]: 2.19%
- Triglycerides (%) [15]: 33.45%
- Weight loss (%) [15]: 18.14%
- Body mass index [16]: 3.40
- Cholesterol (%) [16]: 3.43%
- Fat free mass [16]: 1.04 g
- Fat mass [16]: 6.98 g
- Food consumption (%) [16]: 35.18%
- Glucose (%) [16]: 2.43%
- Triglycerides (%) [16]: 32.42%
- Weight loss (%) [16]: 13.88%
- Body mass index [17]: 3.30
- Cholesterol (%) [17]: 2.36%
- Fat free mass [17]: -0.04 g
- Fat mass [17]: 1.28 g
- Food consumption (%) [17]: 38.09%
- Glucose (%) [17]: 3.11%
- Triglycerides (%) [17]: 34.17%
- Weight loss (%) [17]: 7.83%
- Body mass index [18]: 4.22
- Cholesterol (%) [18]: 3.44%
- Fat free mass [18]: 0.42 g
- Fat mass [18]: 5.41 g
- Food consumption (%) [18]: 47.82%
- Glucose (%) [18]: 2.03%
- Triglycerides (%) [18]: 32.56%
- Weight loss (%) [18]: 8.87%
- Body mass index [19]: 3.35
- Cholesterol (%) [19]: 2.49%
- Fat free mass [19]: -0.13 g
- Fat mass [19]: 1.20 g
- Food consumption (%) [19]: 37.27%
- Glucose (%) [19]: 4.20%
- Triglycerides (%) [19]: 37.21%
- Weight loss (%) [19]: 9.27%
- Body mass index [20]: 3.91
- Cholesterol (%) [20]: 3.45%
- Fat free mass [20]: -0.10 g
- Fat mass [20]: 5.58 g
- Food consumption (%) [20]: 40.91%
- Glucose (%) [20]: 2.10%
- Triglycerides (%) [20]: 32.45%
- Weight loss (%) [20]: 7.30%
- Body mass index [21]: 2.54
- Cholesterol (%) [21]: 2.33%
- Fat free mass [21]: -0.12 g
- Fat mass [21]: 1.06 g
- Food consumption (%) [21]: 33.12%
- Glucose (%) [21]: 4.38%
- Triglycerides (%) [21]: 37.84%
- Weight loss (%) [21]: 3.49%
- Body mass index [22]: 2.99
- Cholesterol (%) [22]: 3.58%
- Fat free mass [22]: -0.09 g
- Fat mass [22]: 5.01 g
- Food consumption (%) [22]: 41.37%
- Glucose (%) [22]: 1.91%
- Triglycerides (%) [22]: 33.32%
- Weight loss (%) [22]: 4.44%
- Concentration of triglycerides [23]: considerable decrease
- Levels of HDL and glucose [23]: maintaining the levels of HDL and glucose
- Liver damage or toxic effects [23]: low presence of liver damage or toxic effects
- Weight [23]: considerable decrease
- Concentration of triglycerides [24]: decrease
- Glucose levels [24]: maintained
- HDL levels [24]: reduced
- Weight [24]: decrease
- Effect on the liver and toxic effects (doses 0.20 mg/Kg to about 1.75 mg/Kg, high purity tyrphostin): reduced the effect on the hepatic liver as well as the toxic effects
